System: mRNA expression in cardiovascular tissues
Assay: Affymetrix GeneChip mRNA expression profiling of monkey tissues (iliac vein, pulmonary vein, aorta, carotid artery, heart) after two-week oral-gavage treatment
[1] = iliac vein, group avg, Vioxx without A60055

Compound: CS(=O)(=O)c1ccc(C2=C(c3ccccc3)C(=O)OC2)cc1 [Vioxx®, rofecoxib]
- HFE (211866_x_at) avg fold change vs control [1]: 1.0 fold
- HHL (203020_at) avg fold change vs control [1]: 1.1 fold
- HLA-A (211528_x_at) avg fold change vs control [1]: 1.3 fold
- HLA-A (211529_x_at) avg fold change vs control [1]: 1.2 fold
- HLA-A (211530_x_at) avg fold change vs control [1]: 1.8 fold
- HLA-A (215313_x_at) avg fold change vs control [1]: 1.3 fold
- HLA-B (208729_x_at) avg fold change vs control [1]: 1.2 fold
- HLA-B (209140_x_at) avg fold change vs control [1]: 1.1 fold
- HLA-B (211911_x_at) avg fold change vs control [1]: 1.4 fold
- HLA-C (208812_x_at) avg fold change vs control [1]: 1.3 fold
- HLA-C (214459_x_at) avg fold change vs control [1]: 1.4 fold
- HLA-C (216526_x_at) avg fold change vs control [1]: 1.3 fold
- HLA-DMA (217478_s_at) avg fold change vs control [1]: 1.1 fold
- HLA-DMB (203932_at) avg fold change vs control [1]: 1.1 fold
- HLA-DQA1 (212671_s_at) avg fold change vs control [1]: 1.0 fold
- HLA-DQB1 (209823_x_at) avg fold change vs control [1]: 0.9 fold
- HLA-DQB1 (211654_x_at) avg fold change vs control [1]: 1.0 fold
- HLA-DQB1 (211656_x_at) avg fold change vs control [1]: 1.0 fold
- HLA-DQB2 (212998_x_at) avg fold change vs control [1]: 1.2 fold
- HLA-DRA (208894_at) avg fold change vs control [1]: 1.0 fold
- HLA-DRA (210982_s_at) avg fold change vs control [1]: 1.0 fold
- HLA-DRB1 (215193_x_at) avg fold change vs control [1]: 1.2 fold
- HLA-DRB3 (209312_x_at) avg fold change vs control [1]: 1.1 fold
- HLA-DRB6 (217362_x_at) avg fold change vs control [1]: 1.2 fold
- HLA-E (200905_x_at) avg fold change vs control [1]: 1.3 fold
- HLA-E (217456_x_at) avg fold change vs control [1]: 1.2 fold
- HLA-F (204806_x_at) avg fold change vs control [1]: 1.1 fold
- HLA-F (221875_x_at) avg fold change vs control [1]: 1.2 fold
- ICAM1 (202638_s_at) avg fold change vs control [1]: 0.8 fold
- ICAM1 (215485_s_at) avg fold change vs control [1]: 0.9 fold
- ICSBP1 (204057_at) avg fold change vs control [1]: 1.4 fold
- IFI27 (202411_at) avg fold change vs control [1]: 3.8 fold
- IFI30 (201422_at) avg fold change vs control [1]: 1.0 fold
- IFI44 (214453_s_at) avg fold change vs control [1]: 2.5 fold
- IFIT1 (203153_at) avg fold change vs control [1]: 1.5 fold
- IFIT2 (217502_at) avg fold change vs control [1]: 1.3 fold
- IFIT4 (204747_at) avg fold change vs control [1]: 0.9 fold
- IFITM2 (201315_x_at) avg fold change vs control [1]: 1.1 fold
- IFITM3 (212203_x_at) avg fold change vs control [1]: 1.4 fold
- IGF1 (209541_at) avg fold change vs control [1]: 0.9 fold
- IGFBP4 (201508_at) avg fold change vs control [1]: 0.5 fold
- IL1A (208200_at) avg fold change vs control [1]: 1.1 fold
- IL2RG (204116_at) avg fold change vs control [1]: 1.4 fold
- IL27RA (205926_at) avg fold change vs control [1]: 1.1 fold
- INDO (210029_at) avg fold change vs control [1]: 1.1 fold
- INPP5D (203332_s_at) avg fold change vs control [1]: 1.2 fold
- IRF1 (202531_at) avg fold change vs control [1]: 0.8 fold
- IRF7 (208436_s_at) avg fold change vs control [1]: 1.6 fold
- ISGF3G (203882_at) avg fold change vs control [1]: 1.7 fold
- ITGB2 (202803_s_at) avg fold change vs control [1]: 0.6 fold
- JAK1 (214377_s_at) avg fold change vs control [1]: 1.3 fold
- KLKB1 (206541_at) avg fold change vs control [1]: 1.2 fold
- LAIR1 (208071_s_at) avg fold change vs control [1]: 0.5 fold
- LCK (204890_s_at) avg fold change vs control [1]: 1.5 fold
- LCP2 (205270_s_at) avg fold change vs control [1]: 0.9 fold
- LILRB1 (207857_at) avg fold change vs control [1]: 0.5 fold
- LILRB1 (211100_x_at) avg fold change vs control [1]: 1.3 fold
- LILRB3 (208594_x_at) avg fold change vs control [1]: 0.9 fold
- LILRB3 (210225_x_at) avg fold change vs control [1]: 0.8 fold
- LRMP (204674_at) avg fold change vs control [1]: 1.7 fold
- LY86 (205859_at) avg fold change vs control [1]: 1.5 fold
- LY96 (206584_at) avg fold change vs control [1]: 1.1 fold
- LYN (210754_s_at) avg fold change vs control [1]: 1.0 fold
- MAF (209348_s_at) avg fold change vs control [1]: 1.0 fold
- PCOLCE (202465_at) avg fold change vs control [1]: 0.5 fold
- PLA2G4C (209785_s_at) avg fold change vs control [1]: 1.2 fold
- PLCL2 (216217_at) avg fold change vs control [1]: 1.0 fold
- PLSCR1 (202446_s_at) avg fold change vs control [1]: 1.2 fold
- PRC1 (218009_s_at) avg fold change vs control [1]: 0.7 fold
- PRG1 (201858_s_at) avg fold change vs control [1]: 0.8 fold
- PRG1 (201859_at) avg fold change vs control [1]: 0.8 fold
- PTPN22 (206060_s_at) avg fold change vs control [1]: 1.0 fold
- PTPRC (207238_s_at) avg fold change vs control [1]: 1.3 fold
- SOCS3 (206360_s_at) avg fold change vs control [1]: 0.8 fold
- STAT1 (209969_s_at) avg fold change vs control [1]: 1.7 fold
- STAT1 (AFFX-HUMISGF3A/M97935_5_at) avg fold change vs control [1]: 1.3 fold
- STAT1 (AFFX-HUMISGF3A/M97935_MA_at) avg fold change vs control [1]: 1.3 fold
- STAT1 (AFFX-HUMISGF3A/M97935_MB_at) avg fold change vs control [1]: 1.5 fold
- TAPBP (208829_at) avg fold change vs control [1]: 0.9 fold
- TCTEL1 (201999_s_at) avg fold change vs control [1]: 0.9 fold
- TLR1 (210176_at) avg fold change vs control [1]: 0.9 fold
- TLR2 (204924_at) avg fold change vs control [1]: 0.9 fold
- TNFAIP3 (202643_s_at) avg fold change vs control [1]: 0.8 fold
- TNFAIP3 (202644_s_at) avg fold change vs control [1]: 1.2 fold
- TNFSF6 (210865_at) avg fold change vs control [1]: 1.1 fold
- TNFSF10 (202687_s_at) avg fold change vs control [1]: 1.2 fold
- TNFSF10 (202688_at) avg fold change vs control [1]: 0.9 fold
- TRGC2 (211144_x_at) avg fold change vs control [1]: 1.3 fold
- TRGC2 (216920_s_at) avg fold change vs control [1]: 1.0 fold
- VCAM1 (203868_s_at) avg fold change vs control [1]: 0.8 fold
- XCL1 (206366_x_at) avg fold change vs control [1]: 1.5 fold
- XCL1 (214567_s_at) avg fold change vs control [1]: 1.1 fold
- XLKD1 (219059_s_at) avg fold change vs control [1]: 1.0 fold
- cig5 (213797_at) avg fold change vs control [1]: 1.4 fold
- expression of CXCL10 and PD-ECGF (mainly in iliac and pulmonary veins, monkey #A60055): strongly induced
- increase of CXCL10 mRNA expression in pulmonary vein (monkey #A60055, 50 mg/kg/day oral gavage, two weeks, pulmonary vein): 20 fold
- increase of MCP-1 mRNA expression in pulmonary vein (monkey A60055, 50 mg/kg/day oral gavage, two weeks, pulmonary vein): 150 fold
- expression of cPLA2 (most of the cardiovascular tissues): upregulated
- expression of Toll like receptor 2 and CD14 (several tissues): significantly increased

Reference: patent US9738932B2, “Biomarkers for cardiovascular side-effects induced by cox-2 inhibitory compounds” (FIRALIS SAS, priority 2005, dated 2017)
